Data from PubChem BioAssay AID192 (DTP/NCI, 2004).
Inconclusive results and toxic doses are left out.

Test system: BDF1 mice, B16 melanoma ip, median survival T/C
Experiment: NCI In Vivo Anticancer Drug Screen. Data for tumor model B16 Melanoma (intraperitoneal) in B6D2F1 (BDF1) mice
Conditions: endpoint: median survival time, higher = longer survival
Outline: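 Survival or tumor size is measured after treatment of tumor-bearing mice and normalised to the vehicle-treated control group.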

[1] = dose: 50.0 mg/kg/injection, schedule: Q01DX009 (ip), vehicle: saline
[2] = dose: 100.0 mg/kg/injection, schedule: Q01DX009 (ip), vehicle: saline
[3] = dose: 200.0 mg/kg/injection, schedule: Q01DX009 (ip), vehicle: saline
[4] = dose: 12.5 mg/kg/injection, schedule: Q01DX009 (ip), vehicle: saline with Tween-80
[5] = dose: 25.0 mg/kg/injection, schedule: Q01DX009 (ip), vehicle: saline with Tween-80
[6] = dose: 50.0 mg/kg/injection, schedule: Q01DX009 (ip), vehicle: saline with Tween-80
[7] = dose: 6.25 mg/kg/injection, schedule: Q01DX009 (ip), vehicle: saline
[8] = dose: 12.5 mg/kg/injection, schedule: Q01DX009 (ip), vehicle: saline
[9] = dose: 25.0 mg/kg/injection, schedule: Q01DX009 (ip), vehicle: saline

**Q.** `CC1CN1c1nc(N2CC2C)nc(N2CC2C)n1` (configuration not stated) was tested. Which T/C (dose: 0.25 mg/kg/injection, schedule: Q01DX009 (ip), vehicle: saline) did it give?
**A.** 105 % of control

**Q.** And the T/C (dose: 0.5 mg/kg/injection, schedule: Q01DX009 (ip), vehicle: saline)?
**A.** 97 % of control

**Q.** And the T/C (dose: 1.0 mg/kg/injection, schedule: Q01DX009 (ip), vehicle: saline with Tween-80)?
**A.** 111 % of control

**Q.** What about the T/C (dose: 1.0 mg/kg/injection, schedule: Q01DX009 (ip), vehicle: saline) of the same compound?
**A.** 98 % of control

**Q.** What about the T/C (dose: 2.0 mg/kg/injection, schedule: Q01DX009 (ip), vehicle: saline with Tween-80) of the same compound?
**A.** 116 % of control

**Q.** What about the T/C (dose: 2.0 mg/kg/injection, schedule: Q01DX009 (ip), vehicle: saline) of the same compound?
**A.** 94 % of control

**Q.** What about the T/C (dose: 2.0 mg/kg/injection, schedule: Q04DX003 (ip), vehicle: saline) of the same compound?
**A.** 105 % of control

**Q.** And the T/C (dose: 4.0 mg/kg/injection, schedule: Q01DX009 (ip), vehicle: saline with Tween-80)?
**A.** 105 % of control

**Q.** And the T/C (dose: 4.0 mg/kg/injection, schedule: Q04DX003 (ip), vehicle: saline)?
**A.** 94 % of control

**Q.** What about the T/C (dose: 8.0 mg/kg/injection, schedule: Q01DX009 (ip), vehicle: saline with Tween-80) of the same compound?
**A.** 90 % of control

**Q.** What about the T/C (dose: 8.0 mg/kg/injection, schedule: Q04DX003 (ip), vehicle: saline) of the same compound?
**A.** 105 % of control

**Q.** Which T/C [1] does the source give for `Nc1ncc(N)c(N)n1` here?
**A.** 102 % of control

**Q.** What about the T/C [2] of the same compound?
**A.** 112 % of control

**Q.** What about the T/C [3] of the same compound?
**A.** 108 % of control

**Q.** Which results are given for `Oc1ccc(C2CCc3ccccc32)cc1` (configuration not stated)?
**A.** T/C (dose: 100.0 mg/kg/injection, schedule: Q01DX009 (ip), vehicle: Klucel (hydroxypropylcellulose) (HPC)): 96 % of control; T/C (dose: 200.0 mg/kg/injection, schedule: Q01DX009 (ip), vehicle: Klucel (hydroxypropylcellulose) (HPC)): 96 % of control; T/C (dose: 400.0 mg/kg/injection, schedule: Q01DX009 (ip), vehicle: Klucel (hydroxypropylcellulose) (HPC)): 100 % of control

**Q.** For `C/C(=N/O)[c-]1[c-][c-][c-][c-]1.[Fe].[c-]1[c-][c-][cH-][c-]1`, which T/C (dose: 3.13 mg/kg/injection, schedule: Q01DX009 (ip), vehicle: saline with Tween-80) is on record?
**A.** 91 % of control

**Q.** What about the T/C (dose: 3.13 mg/kg/injection, schedule: Q04DX003 (ip), vehicle: saline with Tween-80) of the same compound?
**A.** 98 % of control

**Q.** And the T/C (dose: 6.25 mg/kg/injection, schedule: Q01DX009 (ip), vehicle: saline with Tween-80)?
**A.** 100 % of control

**Q.** And the T/C (dose: 6.25 mg/kg/injection, schedule: Q04DX003 (ip), vehicle: saline with Tween-80)?
**A.** 96 % of control

**Q.** What about the T/C [4] of the same compound?
**A.** 97 % of control

**Q.** And the T/C (dose: 12.5 mg/kg/injection, schedule: Q04DX003 (ip), vehicle: saline with Tween-80)?
**A.** 94 % of control

**Q.** How did the T/C (dose: 3.13 mg/kg/injection, schedule: Q04DX003 (ip), vehicle: saline) turn out when `CN1CCC(=C(C#N)C#N)CC1` was run?
**A.** 105 % of control

**Q.** What about the T/C (dose: 6.25 mg/kg/injection, schedule: Q04DX003 (ip), vehicle: saline) of the same compound?
**A.** 94 % of control

**Q.** And the T/C (dose: 12.5 mg/kg/injection, schedule: Q04DX003 (ip), vehicle: saline)?
**A.** 110 % of control

**Q.** Which results are given for `Nc1ccc2c(c1)CN1C(=O)c3ccccc3C1=N2`?
**A.** T/C [4]: 101 % of control; T/C [5]: 103 % of control; T/C [6]: 111 % of control

**Q.** For `COc1cccc2c1C(=O)c1c(O)c3c(c(O)c1C2=O)C[C@@](O)(C(C)=O)C[C@@H]3OC1CC(NC(C)=O)C(O)C(C)O1` (some centres not stated), which T/C [7] is on record?
**A.** 169 % of control

**Q.** What about the T/C [8] of the same compound?
**A.** 198 % of control

**Q.** And the T/C [9]?
**A.** 308 % of control

**Q.** What about the T/C [1] of the same compound?
**A.** 227 % of control

**Q.** Which results are given for `COC(=O)C(CCCN=C(N)N)NC(=O)OCc1ccccc1` (configuration not stated)?
**A.** T/C (dose: 100.0 mg/kg/injection, schedule: Q04DX003 (ip), vehicle: saline): 100 % of control; T/C (dose: 200.0 mg/kg/injection, schedule: Q04DX003 (ip), vehicle: saline): 95 % of control

**Q.** With `O=C(O)c1cc2ccccc2o1` as the compound, how does the T/C (dose: 16.5 mg/kg/injection, schedule: Q01DX009 (ip), vehicle: saline with Tween-80) read?
**A.** 100 % of control

**Q.** What about the T/C [5] of the same compound?
**A.** 100 % of control

**Q.** And the T/C (dose: 37.5 mg/kg/injection, schedule: Q01DX009 (ip), vehicle: saline with Tween-80)?
**A.** 92 % of control

**Q.** What about the T/C [6] of the same compound?
**A.** 111 % of control

**Q.** What about the T/C (dose: 100.0 mg/kg/injection, schedule: Q01DX009 (ip), vehicle: saline with Tween-80) of the same compound?
**A.** 102 % of control

**Q.** Which results are given for `CCCCCCCCCCCCCCCC#N`?
**A.** T/C (dose: 25.0 mg/kg/injection, schedule: Q04DX003 (ip), vehicle: Klucel (hydroxypropylcellulose) (HPC)): 99 % of control; T/C (dose: 50.0 mg/kg/injection, schedule: Q04DX003 (ip), vehicle: Klucel (hydroxypropylcellulose) (HPC)): 96 % of control; T/C (dose: 100.0 mg/kg/injection, schedule: Q04DX003 (ip), vehicle: Klucel (hydroxypropylcellulose) (HPC)): 92 % of control

**Q.** `CCN(CC)C(=O)c1cccnc1` was tested. Which T/C [8] did it give?
**A.** 109 % of control

**Q.** And the T/C [9]?
**A.** 123 % of control

**Q.** What about the T/C [1] of the same compound?
**A.** 107 % of control

**Q.** What about the T/C [2] of the same compound?
**A.** 103 % of control

**Q.** What about the T/C [3] of the same compound?
**A.** 102 % of control

**Q.** With `COCC1OC(OC2OCC3OC4(OCC(O)(C(C)OC)C5OCOC54)OC3C2OC)C(OC)C(O)C1OC1OC(C)C(OC)C(OC2OC(C)C3OC4(CC(O)C(OC5CC(OC6CC(C)([N+](=O)[O-])C(OC)C(C)O6)C(OC(=O)c6c(C)c(Cl)c(O)c(Cl)c6OC)C(C)O5)C(C)O4)OC3(C)C2O)C1O` (configuration not stated) as the compound, how does the T/C [7] read?
**A.** 97 % of control

**Q.** And the T/C [8]?
**A.** 95 % of control

**Q.** What about the T/C [9] of the same compound?
**A.** 100 % of control

**Q.** And the T/C [1]?
**A.** 101 % of control
